Test results from PMC9394307, “Discovery of Putative Dual Inhibitor of Tubulin and EGFR by Phenotypic Approach on LASSBio-1586 Homologs” (Pharmaceuticals, 2022).
Values joined by “and” are separate entries in the source; they are usually repeats but may differ in a detail not shown here. Equal entries are not always repeated. Where two headings read alike, the source gives them in different places.

Experiments:
LoVo [1] = test: MTT cell viability assay, LoVo; assay type: cell-based; conditions: Homo sapiens, MTT, 72 h, value (95% CI), read-out: CC50 (µM) (CI) LoVo
Protocol: (§1) The cytotoxic activity of compounds 3–13 was determined based on an MTT assay against different human tumor cell lines, using LASSBio-1586 (2), LASSBio-1735 (3), CA-4 (1) and pelitinib as standards (Table 2). To determine the cytotoxic selectivity index, compounds were also evaluated toward human lymphocytes (Table 3).
(§2) The target compounds were tested (0.0001–100 µM) for cytotoxic activity against selected human cancer cell lines, such as HL-60 (acute promyelocytic leukemia), MCF-7 (mammary adenocarcinoma), PC-3 (prostate adenocarcinoma), H1975 (non-small cell lung cancer—EGFR^L858R+T790M), PC-9 (non-small cell lung cancer—EGFR^L858R) H292 (mucoepidermoid pulmonary carcinoma—EGFR wild type), LoVo (colorectal adenocarcinoma—EGFRwild type) and GM16000 (lymphocyte). All the human cancer cell lines were purchased from Cell Bank of Rio de Janeiro—BCRJ. They were cultured in RPMI 1640 medium with 10% (v/v) FBS, 2 mM glutamine, at 37 °C in a humidified incubator containing 5% CO2.
(§3) The cytotoxicity of the compounds was evaluated by the MTT assay. The cell lines were cultured in 96 well plates for 72 h with a density of 0.1 × 10^5 cells/mL to 0.7 × 10^5 cells/mL to adherent cell lines. For lymphocytic lines, a density of 0.3 × 10^6 cells/mL was used. Afterwards they were treated with varying concentrations of the target compounds 2–12 (0.0001–100 µM), CA-4 (1) and pelitinib at 37 °C, in triplicate. The medium was incubated with 20 μL of 5 mg/mL MTT solution for 3 h in a humidified incubator containing 5% CO2 [11].
(§4) The purple-colored formazan crystals formed in the wells were dissolved in DMSO and their absorbance was measured at 595 nm with a microplate reader (SpectraMax M5, Molecular Devices).

PC-3 = test: MTT cell viability assay, PC-3; assay type: cell-based; conditions: Homo sapiens, PC-3; MTT, 72 h; value (95% CI); read-out: CC50 (µM) (CI) PC-3
Protocol: as §1, §2, §3, §4

HL-60 = test: MTT cell viability assay, HL-60; assay type: cell-based, human; conditions: Homo sapiens, MTT, value (95% CI), read-out: CC50 (µM) (CI) HL-60
Protocol: as §1, §2
(§5) The cytotoxicity of the compounds was evaluated by the MTT assay. […] For lymphocytic lines, a density of 0.3 × 10^6 cells/mL was used. Afterwards they were treated with varying concentrations of the target compounds 2–12 (0.0001–100 µM), CA-4 (1) and pelitinib at 37 °C, in triplicate. The medium was incubated with 20 μL of 5 mg/mL MTT solution for 3 h in a humidified incubator containing 5% CO2 [11].
as §4

LoVo [2] = test: MTT cell viability assay, LoVo; assay type: cell-based; conditions: Homo sapiens, 48 h, value (95% CI)
PC-9 = test: MTT cell viability assay, PC-9; assay type: cell-based, human; conditions: MTT, value (95% CI), read-out: CC50 (µM) (CI) PC-9
Protocol: as §1, §2, §5, §4

H1975 = test: MTT cell viability assay, H1975; assay type: cell-based, human; conditions: MTT, value (95% CI), read-out: CC50 (µM) (CI) H1975
Protocol: as §1, §2, §5, §4

H292 = test: MTT cell viability assay, H292; assay type: cell-based, human; conditions: MTT, value (95% CI), read-out: CC50 (µM) (CI) H292
Protocol: as §1, §2, §5, §4

[3] = MTT cell viability assay, GM16000 lymphocytes; assay type: cell-based; conditions: GM16000 lymphocyte cells (non-tumor), human lymphocytes, value (95% CI)
Protocol: as §1
To establish the cytotoxic selective index (SI) of LASSBio-1586 homologs, they were studied on human lymphocyte cell lines (GM16000), using the MTT assay. The SI was calculated by the ratio between the CC50 on tumor and non-tumor cell lines. Although there is no consensus, values of SI ≥ 10 is considered satisfactory to assign safety to a new cytotoxic agent. This value means that the compound is more than ten times more cytotoxic to the tumor cell line than to normal cell line.
as §2, §3, §4

MCF-7 = test: MTT cell viability assay, MCF-7; assay type: cell-based, human; conditions: Homo sapiens, MCF7, 72 h, MTT, 72 h; value (95% CI); read-out: CC50 (µM) (CI) MCF-7
Protocol: as §1, §2, §3, §4

[4] = MTT cell viability assay, GM16000 lymphocytes; assay type: cell-based; conditions: GM16000 lymphocyte cells (non-tumor), human lymphocytes, value (95% CI); remark: listed apart in the source
H1975 cells = test: Immunofluorescence of β-tubulin / microtubules; assay type: cell-based, human; conditions: H1975, 48 h; CA-4 0.3 µM, vincristine 0.5 µM, taxol 0.1 µM, LASSBio-1586 10 µM, LASSBio-1735 0.5 µM, LASSBio-2070 4.5 µM, LASSBio-2074 20 µM
Protocol: Antitubulin agents have been broadly classified into destabilizing or stabilizing agents, based on their interference with the dynamic balance of polymerization or depolymerization of microtubules. […] CA-4 (1, 0.3 µM), vincristine (0.5 µM) and taxol (0.1 µM) were used as standard controls.
After incubation, cells were rinsed with PBS and fixed with 4% paraformaldehyde in PBS for 10 min at room temperature. They were then permeabilized with 0.5% Triton-X 100 in PBS 3 times for 10 min. The same solution was used for all subsequent washing steps. Cells were incubated with an anti-beta-tubulin antibody for 1 h at 37 °C. After incubation, cells were washed for 30 min and incubated with Alexa Fluor® 488, conjugated secondary antibody for 1 h at 37 °C, and nuclei were labeled with DAPI (0.1 mg/mL in 0.9% NaCl).
Live cultured cells grown in coverslips were mounted in Prolong Gold solution (Molecular Probes, USA) and were imaged on a Leica TCS SPE confocal microscope (Leica Microsystems, Germany) using 63x 1.3 N.A. oil immersion and the images acquired by the LAS X software. Cell morphology, focusing on the microtubules was analyzed, qualitatively, using the public domain NIH ImageJ Program (developed at the National Institutes of the USA Health and available on the internet at http://imagej.nih.gov/ij/ (accessed on 1 September 2021).

[5] = Homo sapiens, NCI-H1975, 48 h, 48 h
[6] = Homo sapiens, NCI-H1975, 72 h, 72 h
[7] = Homo sapiens, NCI-H292, 48 h, 48 h
[8] = Homo sapiens, NCI-H292, 72 h, 72 h

SMILES	CC50 (LoVo [1]) [µM]	CC50 (PC-3) [µM]	CC50 (HL-60; HL-60, 48 h, 48 h) [µM]	CC50 (HL-60; HL-60, 72 h, 72 h) [µM]	CC50 (LoVo [2]) [µM]	CC50 (PC-9; Homo sapiens, PC-9, 48 h, 48 h) [µM]	CC50 (PC-9; Homo sapiens, PC-9, 72 h, 72 h) [µM]	CC50 (H1975; [5]) [µM]	CC50 (H1975; [6]) [µM]	CC50 (H292; [7]) [µM]	CC50 (H292; [8]) [µM]	CC50 at 72 h [3] [µM]	CC50 (MCF-7) [µM]	CC50 at 48 h [4] [µM]	melting point	CC50 (PC-9; 48 h) [µM]	CC50 (H1975; 48 h) [µM]	CC50 (H292; 48 h) [µM]	cell morphology after treatment (H1975 cells)	effect on microtubules (stabilizing / destabilizing profile) (H1975 cells)
C#CCN(/N=C/c1ccccc1)C(=O)c1cc(OC)c(OC)c(OC)c1 [LASSBio-2072 (9), (E)-N’-benzylidene-3,4,5-trimethoxy-N-(prop-2-yn-1-yl)benzohydrazide]	0.399	2.25	5.85	0.158	3.05	1.27	0.46	5.34	3.98	0.45	3.14	0.612	2.32	2.52	133.91 °C and 133 to 134 °C					
CCN(/N=C/c1ccccc1)C(=O)c1cc(OC)c(OC)c(OC)c1 [LASSBio-2071 (4), (E)-N’-benzylidene-N-ethyl-3,4,5-trimethoxybenzohydrazide]	0.301	1.66	6.03	0.231	3.05		0.384		4.86		2.55	5.13	1.24	2	83.94 °C and 83 to 84 °C	0.881	4.91	0.3		
CC[C@]1(O)C[C@H]2CN(CCc3c([nH]c4ccccc34)[C@@](C(=O)OC)(c3cc4c(cc3OC)N(C=O)[C@H]3[C@@](O)(C(=O)OC)[C@H](OC(C)=O)[C@]5(CC)C=CCN6CC[C@]43[C@@H]65)C2)C1 [vincristine, reference compound]																			rounded shape	typical response of microtubule destabilizing agents
CC(=O)O[C@H]1C(=O)[C@@]2(C)[C@H]([C@H](OC(=O)c3ccccc3)[C@]3(O)C[C@H](OC(=O)[C@H](O)[C@@H](NC(=O)c4ccccc4)c4ccccc4)C(C)=C1C3(C)C)[C@]1(OC(C)=O)CO[C@@H]1C[C@@H]2O [taxol, reference compound]																			more spread-out morphology	
COc1cc(C(=O)N(CCN2CCOCC2)/N=C/c2ccccc2)cc(OC)c1OC [LASSBio-2122 (12), (E)-N’-benzylidene-3,4,5-trimethoxy-N-(2-morpholinoethyl)benzohydrazide]	0.421	2.4	5.09	4.15	1.05	1.5	0.871	6.37	2.48	0.412	2.79	5.65	4.11	3.8						
CCCN(/N=C/c1ccccc1)C(=O)c1cc(OC)c(OC)c(OC)c1 [LASSBio-2118 (5), (E)-N’-benzylidene-3,4,5-trimethoxy-N-propylbenzohydrazide]	0.031	0.432	1.46	0.301	0.74	0.263	0.136	1.12	0.775	0.181	3.72	0.843	0.144	1.1						
CCCCN(/N=C/c1ccccc1)C(=O)c1cc(OC)c(OC)c(OC)c1 [LASSBio-2121 (6), (E)-N’-benzylidene-N-butyl-3,4,5-trimethoxybenzohydrazide]	0.5	0.696	2.61	2.17	2	0.327	0.096	1.71	2.94	0.215	9.55	0.961	0.5	1.2						
CCOc1cc2ncc(C#N)c(Nc3ccc(F)c(Cl)c3)c2cc1NC(=O)/C=C/CN(C)C [Pelitinib, reference compound]	0.037	2.48	3.42	2.08	1.7	0.325	0.0591	2.57	0.512	0.48	0.0784	2.75	3.91	0.899						
